“Also recorded” adds a separate entry of the source.
Legend:
[1] = molecular target: T1, CYP3A4 (Homo sapiens (Human), UniProt P08684); experiment: Reversible CYP inhibition in human liver microsomes (midazolam); assay type: in vitro ADME
Procedure: A seven-point semi-log dilution of each test compound (up to 30 μM) or positive control inhibitors for CYP2C9 (up to 1000 nM sulphenazole), CYP2D6 (up to 500 nM quinidine) and CYP3A4 (up to 250 nM ketoconazole) were dissolved in DMSO and added to the incubation plate using a Tecan 300 (normalized for 0.3% DMSO content). Final reaction conditions were: human liver microsomes (0.1 mg/mL), potassium phosphate buffer 100 mM pH 7.4, 1 mM magnesium chloride, 5 μM diclofenac, 5 μM dextromethorphan and 2.5 μM midazolam. After a pre-incubation at 37° C. The reaction was started with the addition of NADPH solution at the final concentration of 1 mM and carried out at 37° C. for 5 minutes. The reaction was stopped by the addition of 1 volume of cold acetonitrile with internal standard (labetalol) to the incubation plate. The incubation plate was centrifuged at 3000 rpm for 10 minutes to precipitate proteins, and the supernatant was analyzed by LC-MS/MS. Metabolite area ratio (4-OH-diclofenac, dextrorphan and 1-OH-midazolam) versus ISTD area ratio was used as the quantitative signal. Data were analyzed using the plot log of concentration (x-axis) versus the percentage of inhibition (y axis) and the IC50, Hill Slope and R^2 were determined.

[2] = molecular target: PXR nuclear receptor (Homo sapiens (Human), UniProt O75469); experiment: PXR activation luciferase reporter assay; assay type: cell-based; details: 0.03-10 μM test compound; for PXR activation (% Max activity): percentage of the response of Rifampicin at 10 μM; for fold induction at 24 h: versus vehicle-treated cells, read-out: PXR activation (Max fold induction)
PXR nuclear receptor, sequence (O75469 whole entry): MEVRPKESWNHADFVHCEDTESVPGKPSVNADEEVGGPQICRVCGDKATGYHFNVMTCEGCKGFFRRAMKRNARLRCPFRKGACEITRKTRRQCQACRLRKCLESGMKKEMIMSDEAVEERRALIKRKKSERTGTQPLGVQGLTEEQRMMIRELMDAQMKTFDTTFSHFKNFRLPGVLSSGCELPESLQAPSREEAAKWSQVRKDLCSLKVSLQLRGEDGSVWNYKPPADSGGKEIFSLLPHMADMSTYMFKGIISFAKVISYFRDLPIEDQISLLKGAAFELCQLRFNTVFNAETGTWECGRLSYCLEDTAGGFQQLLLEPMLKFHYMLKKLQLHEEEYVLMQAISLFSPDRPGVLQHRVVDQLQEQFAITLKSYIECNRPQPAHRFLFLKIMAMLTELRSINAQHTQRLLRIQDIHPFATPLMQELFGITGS
Procedure: An expression vector harboring a full-length PXR nuclear receptor plus the appropriate enhancers and promoters linked to the luciferase reporter gene were integrated into the tumor cells. Tumor cells transfected with the species-specific nuclear receptor and the corresponding response elements were seeded in a 96-well plate. Twenty-four hours after seeding, the cells were treated with six distinct concentrations (0.03-10 μM) of the test compound. The cells were then returned to the incubator for an additional 24 h. After this incubation period, the number of viable cells/well were determined using Promega's Cell Titer Fluor cytotoxicity assay. At the end of the assay, Promega's ONE-Glo was added to assess the receptor activation by monitoring reporter gene activity, and by comparing the results to vehicle-treated cells. Activation data were normalized to the number of viable cells/well. Results are expressed as a percentage of the response given by Rifampicin, the positive control, at a 10 μM dose.

[3] = molecular target: T1, CYP3A4; experiment: Time-dependent inhibition (TDI), IC50 shift +/-NADPH, human liver microsomes; assay type: in vitro ADME; details: IC50 −NADPH divided by IC50 +NADPH
Procedure: Test compound or positive control inhibitors (CYP2C9: Tienilic acid; CYP2D6: paroxetine; CYP3A4: mifepristone) were dissolved in DMSO and a semi-log dilution (up to 50.0 μM) was prepared to 2 incubation plates and normalized for a final DMSO content of 0.5%. Human liver microsomes were diluted at 1 mg/mL with 100 mM potassium phosphate buffer pH 7.4 (1 mM MgCl2) and added to both incubation plates. After pre-incubation at 37° C., the reaction was started with the addition of NADPH (+NADPH condition) or with water (−NADPH condition). Plates were incubated for 30 min and 8 μL were transferred to a second incubation plate containing 72 μL of 1 mM NADPH, 20 μM diclofenac (CYP2C9), 20 μM dextromethorphan (CYP2D6) and 10 μM midazolam (CYP3A4) in 100 mM potassium phosphate buffer pH 7.4 (1 mM MgCl2). Plates were incubated for 10 min and the reaction was stopped by the addition of cold acetonitrile containing internal standard (1:1 v/v). […] Metabolite area ratio (4-OH-diclofenac, dextrorphan and 1-OH-midazolam) versus internal standard area ratio was used as the quantitative signal. Data were analyzed using the plot log of concentration (x axis) versus the percentage of inhibition (y axis) and IC50. Hill Slope and R^2 were determined. The IC50 shift was then calculated by dividing the IC50-NADPH condition by the IC50 obtained in the +NADPH condition.

[4] = Liver microsomal stability assay; assay type: in vitro ADME; details: pH 7.4; human liver microsomes, 1 μM compound
Procedure: Liver microsomes were thawed on ice prior to use. The incubation mixtures were prepared in 96-well plates and contained test compound or control (1 μM), liver microsomes (0.5 mg of microsomal protein/mL), MgCl2 (5 mM), phosphate buffer (100 mM, pH 7.4), 0.01% DMSO and 1% acetonitrile. A T=0 aliquot was withdrawn after 10 min pre-incubation at 37° C. on a shaker. Reactions were initiated by the addition of NADPH (final concentration of 1 mM) and the plate was kept on a shaker at 37° C., further samples were withdrawn at 5, 15, 30, and 60 minutes. At each timepoint, the reactions were immediately terminated by adding of ice-cold acetonitrile containing internal standard to the withdrawn sample. The extracted samples were centrifuged for 10 minutes at 3200 rpm to pellet the precipitated microsomal protein, and the supernatant was combined 1:1 with water and analyzed by LC-MS/MS. Using the T=0 peak area ratio as 100%, the percentage of parent compound remaining was calculated. For each compound, the In percentage remaining versus incubation time was plotted and the slope of this linear regression (−k) was converted to an in vitro T1/2 value and CLint using the equations below.

[5] = molecular target: T2, PolQ ATPase enzyme (1-894) (Homo sapiens (Human), UniProt O75417); experiment: Polθ ATPase enzymatic assay (3 nM enzyme concentration), ADP-Glo; assay type: biochemical
T2 sequence (O75417 1-894): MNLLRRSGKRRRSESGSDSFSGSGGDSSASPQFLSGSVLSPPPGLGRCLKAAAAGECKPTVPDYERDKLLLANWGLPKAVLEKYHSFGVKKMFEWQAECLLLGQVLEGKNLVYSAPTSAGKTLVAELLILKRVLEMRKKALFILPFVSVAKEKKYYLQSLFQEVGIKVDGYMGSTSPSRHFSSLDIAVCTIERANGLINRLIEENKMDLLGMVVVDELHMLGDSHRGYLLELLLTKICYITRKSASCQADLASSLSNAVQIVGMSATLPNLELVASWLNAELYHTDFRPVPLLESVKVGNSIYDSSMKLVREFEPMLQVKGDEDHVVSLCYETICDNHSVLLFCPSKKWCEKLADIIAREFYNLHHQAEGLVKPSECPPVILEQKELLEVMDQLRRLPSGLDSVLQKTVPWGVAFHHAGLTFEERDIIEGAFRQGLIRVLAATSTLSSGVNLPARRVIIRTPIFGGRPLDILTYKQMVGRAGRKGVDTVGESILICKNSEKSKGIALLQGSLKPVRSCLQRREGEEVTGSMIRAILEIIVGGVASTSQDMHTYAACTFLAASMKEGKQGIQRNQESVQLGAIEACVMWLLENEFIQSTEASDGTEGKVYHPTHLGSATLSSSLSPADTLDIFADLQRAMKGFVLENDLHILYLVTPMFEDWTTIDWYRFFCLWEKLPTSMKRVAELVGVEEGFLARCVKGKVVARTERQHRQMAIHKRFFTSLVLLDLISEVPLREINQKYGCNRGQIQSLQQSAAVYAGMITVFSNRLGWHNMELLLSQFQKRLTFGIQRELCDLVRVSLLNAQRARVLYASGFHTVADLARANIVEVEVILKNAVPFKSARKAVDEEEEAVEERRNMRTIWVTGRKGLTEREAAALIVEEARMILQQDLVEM
Procedure: Following pre-incubation with inhibitors, DNA (Fork C) at 20 nM and ATP at 100 μM are added to start the reaction. Enzymatic reaction proceeds at rt for 60 min. ATP consumption is measured using the ADP-Glo assay from Promega. Luminescence is read on the Envision and IC50 are determined using the variable slope 4-parameters equation.
DNA (Fork C) is made by annealing 3 different oligos containing the following sequence of nucleotides:
Oligos are annealed by heating at 95° C. for 5 min in the following buffer (10 mM Tris-HCl PH7.5, 50 mM NaCl, 1 mM EDTA) and cooled to rt.
In Table 4, the Compounds were prepared according to Methods described previously using Intermediates described herein, commercially available reagents or intermediates described in the literature. In some cases, the use of protecting groups may be required to prepare Compounds described below.

[6] = tested on: DLD1-BRCA2−/− tumors; experiment: Compound 113 and carboplatin, tumor volume in mice; assay type: in vivo, SCID-Beige mice; details: Compound 113 45 mg/kg SDD suspension p.o. QD with carboplatin 25 mg/kg i.p. QW; day 35 N=10, p=0.0428 (FIG. 6A, 6B)
Procedure: (§1) A spray dried dispersion (SDD) formulation was developed using Compound 113. A 1:1 (w/w) mixture of Compound 113 and HPMCAS (grade H) were fully dissolved in a 4:1 (v/v) mixture of dichloromethane:methanol at a loading of ˜5% solid (w/w). The solution was spray-dried to an amorphous powder which was further dried overnight in a vacuum oven set to 40° C. to remove residual solvents. This SDD material was used for subsequent in vivo dosing in mouse models.
DLD1-BRCA2−/− (10^7 cells/mouse) cells were injected subcutaneously in SCID-Beige mice. Mice were randomized at a mean tumor volume of 150 mm^3. Compound 113 (45 mg/kg as an SDD suspension in 0.5% methocel+0.02% SLS) was dosed orally (p.o.) QD throughout the study. Carboplatin (25 mg/kg) was dosed i.p. QW. Control mice were dosed QD and QW with corresponding vehicle solutions. Tumor volumes were measured (caliper) every 2-3 days.

[7] = tested on: MDAMB436 BRCA1 mutant breast tumor cells; experiment: Polθ-DNA-PK inhibitor combination, cell viability by Incucyte; assay type: cell-based; details: in combination with AZD-7648 (DNA-PK inhibitor), 9 days (FIG. 3)
Procedure: MDAMB436 BRCA1 mutant breast tumor cells were plated at 1500 cells/well in 96 well plates. Compounds were added on day 1 and cells were grown in at 37° C. for 9 days. Cell growth was assessed by the Incucyte assay. Cell viability was normalized to untreated cells.

[8] = tested on: HCT116 BRCA2−/− tumor; experiment: Polθ-PARP inhibitor combination therapy, tumor volume in mice; assay type: in vivo, SCID-Beige mice; details: Compound 113 30 mg/kg SDD suspension p.o. QD with olaparib 25 mg/kg p.o. QD; N=10, p=0.0008 (FIG. 2)
Procedure: as §1
HCT116-BRCA2−/− (10^7 cells/mouse) cells were injected subcutaneously in SCID-Beige mice. Mice were randomized at a mean tumor volume of 150 mm^3. Compound 113 (30 mg/kg as an SDD suspension in 0.5% methocel+0.02% SLS) and PARP inhibitor olaparib (25 mg/kg) were dosed orally (p.o.) QD throughout the study. Control mice were dosed QD with vehicle solution. Tumor volumes measured (caliper) every 3-4 days. N=10, Welch's t test, *** p=0.0008.

[9] = tested on: HCT116 BRCA2−/− cells; experiment: Combination of Compound 113 and PARP inhibitors, cell growth by Incucyte; assay type: cell-based
Procedure: HCT116-BRCA2−/− (750 cells/well) cells were seeded in a 96-well plate (Costar 3595) and incubated overnight in a tissue culture incubator (5% CO2, 37° C.). The next day, Compound 113 and PARP inhibitors (olaparib or niraparib) were added using a TECAN D300 instrument. Media was replenished with fresh compounds every 3 or 4 days. Cellular growth was monitored using the Incucyte® Live-Cell Analysis System until DMSO-treated wells reached 90% confluency (10-12 days). Cellular confluency was determined using Incucyte® Cell-by-Cell Analysis Software Module and dose-response curves calculated using GraphPad Prism software.

[10] = tested on: DOTC24510 BRCA 2 mutant breast tumor cells; experiment: Compound 113 and radiotherapy, cell viability by Incucyte; assay type: cell-based; details: 200 nM Compound 113 with radiotherapy at 0.5 or 1 Gy on days 2, 6, 9; read day 13 (FIG. 5)
Procedure: DOTC24510 BRCA 2 mutant breast tumor cells were plated in 96 well plates at a density of 1000 cells per well and cultured in tissue culture medium at 37° C. On day 1, cells were treated with either DMSO or 200 nM of Compound 113. Cells were irradiated with 0, 0.25, 0.5 or 1 Gy of radiation on days 2, 6, and 9. Cell viability was assessed by Incucyte assay on day 13.

[11] = tested on: DLD1 BRCA2 null tumor cells; experiment: Polθ-DNA-PK inhibitor combination, cell viability by Incucyte; assay type: cell-based; details: in combination with AZD-7648 (DNA-PK inhibitor), 8 days (FIG. 4)
Procedure: DLD1 BRCA2 null tumor cells were plated at 1000 cells/well in 96 well plates. Compounds were added on day 1 and cells were grown in at 37° C. for 8 days. Cell growth was assessed by the Incucyte assay. Cell viability was normalized to untreated cells.

[12] = molecular target: T2, PolQ ATPase enzyme (1-894); experiment: Polθ ATPase enzymatic assay (0.5 nM enzyme concentration), ADP-Glo; assay type: biochemical; details: 0.5 nM PolQ ATPase enzyme (1-894); average IC50
Method in brief: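 Human PolQ ATPase domain (1-894), 0.5 nM, preincubated 15 min at rt with 10-point inhibitor series in 50 mM Tris pH 7.5, 10% glycerol, 5 mM DTT, 10 mM MgCl2, 0.1 mg/ml BSA.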

T1 sequence (P08684 whole entry): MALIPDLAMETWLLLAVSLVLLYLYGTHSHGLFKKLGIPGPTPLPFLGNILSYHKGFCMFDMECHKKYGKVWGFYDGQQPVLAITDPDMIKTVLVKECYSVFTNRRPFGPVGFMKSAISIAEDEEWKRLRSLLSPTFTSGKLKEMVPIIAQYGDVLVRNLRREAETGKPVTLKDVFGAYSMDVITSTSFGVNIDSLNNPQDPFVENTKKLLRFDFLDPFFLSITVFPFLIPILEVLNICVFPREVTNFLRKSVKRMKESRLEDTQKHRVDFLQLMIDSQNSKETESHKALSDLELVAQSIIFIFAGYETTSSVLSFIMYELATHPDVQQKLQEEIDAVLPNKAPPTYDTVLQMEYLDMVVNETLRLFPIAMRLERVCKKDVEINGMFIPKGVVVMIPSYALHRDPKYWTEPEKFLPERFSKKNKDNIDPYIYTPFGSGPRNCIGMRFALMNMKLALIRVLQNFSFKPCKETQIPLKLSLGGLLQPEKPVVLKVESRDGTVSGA

| Compound | IC50 [1] [nM] | PXR activation (% Max activity) [2] [%] | fold induction at 24 h [2] | Time-dependent CYP3A4 inhibition-shift after 30 min with NADPH [3] [x] | microsomal CLint at 1 μM [4] [µL/min/mg] | other results |
| --- | --- | --- | --- | --- | --- | --- |
| COc1cnc(Cl)cc1-c1cnccc1C(=O)Nc1nnc(C#CC2CC2)s1 | > 30000 | 5.0 | 1.8 | 1 | < 7.7 |  |
| COc1ccc(F)cc1-c1cnccc1C(=O)Nc1nnc([C@@H]2C[C@H]2c2nc3ccccc3n2C)s1 (racemic) [Compound 4, 3-(5-fluoro-2-methoxyphenyl)-N-(5-((1R,2R)-2-(1-methyl-1H-benzo[d]imidazol-2-yl)cyclopropyl)-1,3,4-thiadiazol-2-yl)isonicotinamide] |  |  |  |  |  | IC50 [5]: 92 nM |
| COc1cnc(C(F)F)cc1-c1cc(-c2ccn(C)n2)ncc1C(=O)Nc1nnc(C#CC2CC2)s1 [Compound 113, N-(5-(cyclopropylethynyl)-1,3,4-thiadiazol-2-yl)-2′-(difluoromethyl)-5′-methoxy-6-(1-methyl-1H-pyrazol-3-yl)-[4,4′-bipyridine]-3-carboxamide] |  |  |  |  |  | DLD1-BRCA2−/− tumor volume, combination versus monotherapy treatments [6]: sensitizes DLD1 BRCA2 null tumors to carboplatin; also recorded: superior at reducing tumor volume in mice; MDAMB436 BRCA1 cell viability, combination versus AZD-7648 alone [7]: sensitizes MDAMB436 breast tumor cells to AZD-7648; also recorded: superior at reducing MDAMB436 BRCA1 cell viability; HCT116 BRCA2−/− tumor volume, combination versus inhibitors alone [8]: superior at reducing tumor volume; percent viability of HCT116 BRCA2−/− cells, combination versus inhibitors alone ([9]; in combination with niraparib, 10-12 days (FIG. 1B)): superior at reducing cancer cell viability; percent viability of HCT116 BRCA2−/− cells, combination versus inhibitors alone ([9]; in combination with olaparib, 10-12 days (FIG. 1A)): superior at reducing cancer cell viability; DOTC24510 BRCA 2 mutant breast tumor cell viability, combination versus Compound 113 alone [10]: sensitizes DOTC24510 breast tumor cells to irradiation; also recorded: superior at reducing DOTC24510 BRCA 2 mutant breast tumor cell viability; DLD1 BRCA2 null tumor cell viability, combination versus AZD-7648 alone [11]: sensitizes DLD1 BRCA2 null tumor cells to AZD-7648; also recorded: superior at reducing DLD1 BRCA2 null tumor cell viability |
| COc1ccc(F)cc1-c1cnccc1C(=O)Nc1nnc(C#Cc2ccc(C#N)cc2)s1 [Compound 473] | 1110 | 2.0 | 1.3 | 1 | 46.4 | IC50 [12]: 3.5 nM |
